“And” between values parts separate entries of the source, which are not always exact repeats. Equal values may be shown once. Read-outs that look alike come from different tables or passages of the source. Marks after values point to notes of the source that are not given here.
Legend:
uterus = test: Uterine wet weight, post-menopausal (OVX) rat model, four day dosing regimen; assay type: in vivo, female Sprague Dawley rats; settings: for Uterine Weight (% inc. OVX): oral, daily for 4 days, OVX rats, * = significantly different than OVX control
Procedure: In the examples illustrating the methods, a post-menopausal model was used in which effects of different treatments upon various biological parameters were determined, including serum cholesterol concentration, uterine weight, eosinophil peroxidase activity, MCF-7 cell proliferation, and bone density.
(§1) Animals were dosed daily for 4 days. […] A blood sample was collected by cardiac puncture.

[1] = tested on: MCF-7 breast adenocarcinoma cells; test: MCF-7 proliferation assay (tritiated thymidine incorporation); assay type: cell-based; settings: Homo sapiens, MCF7; MCF-7 cells, 48 hours with drug, tritiated thymidine pulse 4 hours; read-out: ED50 (the source's name)
Procedure: MCF-7 breast adenocarcinoma cells (ATCC HTB 22) were maintained in MEM (minimal essential medium, phenol red-free, Sigma, St. Louis, MO) supplemented with 10% fetal bovine serum (FBS) (V/V), L-glutamine (2 mM), sodium pyruvate (1 mM), HEPES {(N-[2-hydroxyethyl]piperazine-N'-[2-ethanesulfonic acid]10 mM}, non-essential amino acids and bovine insulin (1 µg/ml) (maintenance medium). Ten days prior to assay, MCF-7 cells were switched to maintenance medium supplemented with 10% dextrancoated charcoal stripped fetal bovine serum (DCC-FBS) assay medium) in place of 10% FBS to deplete internal stores of steroids. MCF-7 cells were removed from maintenance flasks using cell dissociation medium (Ca++/Mg++ free HBSS (phenol red-free) supplemented with 10 mM HEPES and 2 mM EDTA). Cells were washed twice with assay medium and adjusted to 80,000 cells/ml. […] Serial dilutions of drugs or DMSO as a diluent control were prepared in assay medium and […] to triplicate microcultures followed by 50 ml assay medium for a final volume of […]. After an additional 48 hours at 37° C in a 5% CO2 humidified incubator, microcultures were pulsed with tritiated thymidine (1 uCi/well) for 4 hours. Cultures were terminated by freezing at -70° C for 24 hours followed by thawing and harvesting of microcultures. Samples were counted by liquid scintillation.

[2] = tested on: eosinophil peroxidase activity; test: Uterine eosinophil peroxidase (EPO) assay, OVX rat, four day dosing regimen; settings: for Uterine EPO (Vmax): oral, daily for 4 days, OVX rats, * = significantly different than OVX control
Text: (§2) Seventy-five day old female Sprague Dawley rats (weight range of 200 to 225 g) were obtained from Charles River Laboratories (Portage, MI). The animals were either bilaterally ovariectomized (OVX) or exposed to a sham surgical procedure (Intact) at Charles River Laboratories, and then shipped after one week. Upon arrival, they were housed in metal hanging cages in groups of 3 or 4 per cage and had ad libitum access to food (calcium content approximately 0.5%) and water for one week. […] The photoperiod in the room was 12 hours light and 12 hours dark.
(§3) After a one week acclimation period (therefore, two weeks post-OVX), daily dosing with test compound was initiated. 17α-Ethynyl estradiol (EE2) (Sigma Chemical Co., St. Louis, MO), an orally available form of estrogen, or the test compound were given orally, unless otherwise stated, as a suspension in 1% carboxymethyl cellulose or dissolved in 20% cyclodextrin. Animals were dosed daily for 4 days. Following the dosing regimen, animals were weighed and anesthetized with a ketamine:xylazine (2:1, v:v) mixture. A blood sample was collected by cardiac puncture. The animals were then sacrificed by asphyxiation with CO2, the uterus was removed through a midline incision, and a wet uterine weight was determined.
(§4) Uteri were kept at 4° C until time of enzymatic analysis. The uteri were then homogenized in 50 volumes of 50 mM Tris buffer (pH - 8.0) containing 0.005% Triton X-100. Upon addition of 0.01% hydrogen peroxide and 10 mM o-phenylenediamine (final concentrations) in Tris buffer, increase in absorbance was monitored for one minute at 450 nm. […] The maximal velocity of a 15 second interval was determined over the initial, linear portion of the reaction curve.

serum cholesterol = test: Serum cholesterol analysis, OVX rat, four day dosing regimen; assay type: in vivo, female Sprague Dawley rats; settings: for inhibition in vivo at 0.1 mg/kg / inhibition in vivo at 1 mg/kg / inhibition in vivo at 10 mg/kg: Rattus norvegicus, 96 h, read-out: Serum Cholesterol (% dec. OVX); for inhibition in vivo at 0.1 mg/kg / inhibition in vivo at 1 mg/kg / inhibition in vivo at 10 mg/kg / Serum Cholesterol (% dec. OVX): oral, daily for 4 days, OVX rats, * = significantly different than OVX control
Procedure: as §1
Blood samples were allowed to clot at room temperature for 2 hours, and serum was obtained following centrifugation for 10 minutes at 3000 rpm. Serum cholesterol was determined using a Boehringer Mannheim Diagnostics high performance cholesterol assay. Briefly the cholesterol was oxidized to cholest-4-en-3-one and hydrogen peroxide. The hydrogen peroxide was then reacted with phenol and 4-aminophenazone in the presence of peroxidase to produce a p-quinone imine dye, which was read spectrophotemetrically at 500 nm. Cholesterol concentration was then calculated against a standard curve. The entire assay was automated using a Biomek Automated Workstation.

[3] = tested on: eosinophil peroxidase activity; settings: rat, in vivo, po
Text: as §2, §3, §4

tibia density = test: Bone density assay, OVX rat, thirty-five day dosing regimen (single photon absorptiometry of tibia); assay type: in vivo, female Sprague Dawley rats; settings: OVX rats, oral, daily for 35 days, in 20% hydroxypropyl β-cyclodextrin
Procedure: Following the General Preparation procedure described above, the rats were treated daily for 35 days (6 rats per treatment group) and sacrificed by decapitation on the 36th day. The 35 day time period was sufficient to allow maximal effect on bone density, measured as described herein. At the time of sacrifice, the uteri were removed, dissected free of extraneous tissue, and the fluid contents were expelled before determination of wet weight in order to confirm estrogen deficiency associated with complete ovariectomy. […] The uteri were then placed in 10% neutral buffered formalin to allow for subsequent histological analysis.
The right tibias were excised and scanned at the distal metaphysis 1 mm from the patellar groove with single photon absorptiometry. Results of the densitometer measurements represent a calculation of bone density as a function of the bone mineral content and bone width.
In accordance with the procedures outlined above, compounds of the present invention and EE2 in 20% hydroxypropyl β-cyclodextrin were orally administered to test animals.

SMILES | Uterine Weight (% inc. OVX) (uterus; Dose 0.1 mg/kg) [%] | Uterine Weight (% inc. OVX) (uterus; Dose 1 mg/kg) [%] | Uterine Weight (% inc. OVX) (uterus; Dose 10 mg/kg) | EC50 [1] [nM] | Uterine EPO (Vmax) ([2]; Dose 0.1 mg/kg) | Uterine EPO (Vmax) ([2]; Dose 1 mg/kg) | Uterine EPO (Vmax) ([2]; Dose 10 mg/kg) | inhibition in vivo at 0.1 mg/kg (serum cholesterol; Dose 0.1 mg/kg) [%] | inhibition in vivo at 1 mg/kg (serum cholesterol; Dose 1 mg/kg) [%] | inhibition in vivo at 10 mg/kg (serum cholesterol; Dose 10 mg/kg) [%] | other results
O=C(c1ccc(OCCN2CCCCC2=O)cc1)c1c(-c2ccc(O)cc2)sc2cc(O)ccc12 [Compound 3] | 13.3 | 17.8 | 57.6* % | 600 | 8.0 | 7.8 | 8.9 | 38.1 | 45.8 | 72.4 | 
O=C(c1ccc(OCCN2CCCC2=O)cc1)c1c(-c2ccc(O)cc2)sc2cc(O)ccc12 [Compound 6] | -9 | 15.4 | 40.3* % |  | 3.6 | 1.4 | 3.7 | 33.6 | 52.4 | 67.5 | 
COc1ccc(-c2sc3cc(OC)ccc3c2C(=O)c2ccc(OCC(=O)N3CCCCC3)cc2)cc1 [Compound 7] | -0.5 | -16.2 | 8.4% |  | 5.2 | 3.7 | 4.7 |  |  |  | 
CCCCN(C)C(=O)COc1ccc(C(=O)c2c(-c3ccc(O)cc3)sc3cc(O)ccc23)cc1 [Compound 10] | 1.5 | -6.7 | 38.0* % | 50 | 4.3 | 3.1 | 17.0 | -40 | 19.1 | 67.1 | 
O=C(c1ccc(OCCN2C(=O)CCC2=O)cc1)c1c(-c2ccc(O)cc2)sc2cc(O)ccc12 [Compound 13] | 22.2 | 7.2 | -4.0% | > 1000 | 1.9 | 1.7 | 2.5 | 37.6 | 12.6 | 30.1 | 
N#CCOc1ccc(C(=O)c2c(-c3ccc(O)cc3)sc3cc(O)ccc23)cc1 [Compound 14] | 18.8 | 14.6 |  | 0.05 | 3.3 | 2.4 |  | 3.3 | 23.7 |  | 
CC(C#N)Oc1ccc(C(=O)c2c(-c3ccc(O)cc3)sc3cc(O)ccc23)cc1 (centres unmarked) [Compound 16] |  |  |  | 0.02 | 2.3 | 3.9 | 23.4 |  |  |  | 
O=C(NCCOc1ccc(C(=O)c2c(-c3ccc(O)cc3)sc3cc(O)ccc23)cc1)c1ccccc1 [Compound 18] |  |  |  | 500 | 3.2 | 3.6 | 3.6 |  |  |  | 
O=C(NCCOc1ccc(C(=O)c2c(-c3ccc(O)cc3)sc3cc(O)ccc23)cc1)NC1CCCCC1 [Compound 20] | -29.9 | -27.4 | -32.7% | 0.1 | 3.0 | 2.5 | 2.9 | -27.2 | -6 | -15.4 | 
O=C(c1ccc(OCCNC(=O)C2CCCCC2)cc1)c1c(-c2ccc(O)cc2)sc2cc(O)ccc12 [Compound 21] |  |  |  |  | 3.1 | 2.6 | 2.4 |  |  |  | 
CC(=O)NCCOc1ccc(C(=O)c2c(-c3ccc(O)cc3)sc3cc(O)ccc23)cc1 [Compound 26] | -17.5 |  |  |  | 1.3 | 0.7 | 13.6 | 15.8 |  |  | 
C#C[C@]1(O)CC[C@H]2[C@@H]3CCc4cc(O)ccc4[C@H]3CC[C@@]21C [ethynyl estradiol, 17α-Ethynyl estradiol, reference compound] |  |  |  |  | 120.0* |  |  | 89.6 |  |  | uterine weight (result in words) (uterus; rat, in vivo, po, 0.1 mg/kg/day): marked stimulatory action on the uterus; eosinophil infiltration into the uterus (result in words) ([2]; ovariectomized rats, measured by assay of eosinophil peroxidase activity): substantial, expected increase in eosinophil infiltration; serum cholesterol (result in words) (serum cholesterol; compared to ovariectomized control animals, four day dosing, EE2 orally at 0.1 mg/Kg/day): caused a decrease in serum cholesterol; tibia density / bone loss (result in words) (tibia density): prevented this loss

More lines, main results first:

Uterine Weight (% inc. OVX) (uterus; Dose 0.1 mg/kg) [%] | Uterine Weight (% inc. OVX) (uterus; Dose 1 mg/kg) [%] | Uterine Weight (% inc. OVX) (uterus; Dose 10 mg/kg) | EC50 [1] [nM] | Uterine EPO (Vmax) ([2]; Dose 0.1 mg/kg) | Uterine EPO (Vmax) ([2]; Dose 1 mg/kg) | Uterine EPO (Vmax) ([2]; Dose 10 mg/kg) | SMILES | inhibition in vivo at 0.1 mg/kg (serum cholesterol; Dose 0.1 mg/kg) [%] | inhibition in vivo at 1 mg/kg (serum cholesterol; Dose 1 mg/kg) [%] | inhibition in vivo at 10 mg/kg (serum cholesterol; Dose 10 mg/kg) [%] | other results
 |  |  | 10 | 3.6 and 4.4 | 6.1 and 3.7 |  | O=C(c1ccc(OCC(=O)N2CCCC2)cc1)c1c(-c2ccc(O)cc2)sc2cc(O)ccc12 [Compound 8] |  |  |  | Uterine EPO (Vmax) ([2]; Dose 0.01 mg/kg): 3.5; Serum Cholesterol (% dec. OVX) (serum cholesterol; Dose 0.1 mg/kg): 25.8%; Serum Cholesterol (% dec. OVX) (serum cholesterol; Dose 1 mg/kg): 69.6* % and 39.4* %; Serum Cholesterol (% dec. OVX) (serum cholesterol; Dose 10 mg/kg): 64.5* %
-10.0 | 6.5 | 51.7* % | 10 | 2.8 | 3.6 | 32 | O=C(c1ccc(OCC(=O)N2CCCCC2)cc1)c1c(-c2ccc(O)cc2)sc2cc(O)ccc12 [Compound 9] | 4.2 | 22 | 74.3 | 
-7.7 | 15.4 | 60.7* % |  | 3.7 | 6.7 | 122.3* | CN(C)C(=O)COc1ccc(C(=O)c2c(-c3ccc(O)cc3)sc3cc(O)ccc23)cc1 [Compound 12] | 27.8 | 48.2 | 71.2 | 
7 |  |  | 0.1 | 5.4 | 3.7 |  | CC(=O)N(CCOc1ccc(C(=O)c2c(-c3ccc(O)cc3)sc3cc(O)ccc23)cc1)C1CCCCC1 [Compound 19] | 14.5 |  |  | 
 |  |  | 0.01 |  |  |  | CC(C)(C)C(=O)N1CCCCC1COc1ccc(C(=O)c2c(-c3ccc(O)cc3)sc3cc(O)ccc23)cc1 (centres unmarked) [Compound 22] |  |  |  | Uterine EPO (Vmax) ([3]; 0.1 mg/kg): 3.5; Uterine EPO (Vmax) ([3]; 1 mg/kg): 20.0; Uterine EPO (Vmax) ([3]; 10 mg/kg): 69.5*
-4.3 | 0.8 | 22.3% | 4 | 1.6 | 3.8 | 6.7 | CC(C)(C)C(=O)N1CCC(Oc2ccc(C(=O)c3c(-c4ccc(O)cc4)sc4cc(O)ccc34)cc2)CC1 [Compound 23] | -17.4 | -5.2 |  | 

Source: patent EP0747380B1, “Compounds and compositions with nitrogen-containing non-basic side chains” (ELI LILLY AND COMPANY, priority 1995, dated 1996)
